Measurements reported in US20220362381A1, “REMOTELY TRIGGERED THERAPY” (Bambu Vault LLC, priority 2019, published 2022).

Experiments:
[1] = likelihood of association with drug induced liver injury; cited from earlier work
[2] = Leaching testing of curcumin/Epolight IR 1117 B-805 particles with and without VTMS shell (FIG. 13); type: physicochemical; conditions: B-805 particles with VTMS shell vs. without shell
[3] = Stabilization effect of surfactant on tetrakis aminium dye during emulsification (Epolight 1117 retention); type: physicochemical; conditions: retention in particles after emulsification; surfactant in aqueous phase as in label
Procedure: IR absorbing agent weight ratio=4.4:1). The organic phase (polymer and IR absorbing agents dissolved in dichloromethane) was injected directly into the aqueous phase (PVA solution with SDS surfactant) at the tip of the Turrax's roto-stator (i.e. directly into the flow being sheared by the roto-stator). The shear mixing at 8000 RPM was continued for 30 minutes. The resulting mixture was decanted into an open-mouth container and stirred magnetically for 16 hours. A solid suspension of particles containing IR absorbing agent was obtained. The solid suspension was centrifuged at 5000 RPM for 30 minutes and the particles were collected. The collected particles were washed with distilled water by resuspending the particles into distilled water and centrifuging as before to collect the particles. This washing process was repeated three times to remove residual PVA. The resulting MMA/BMA copolymer particles containing IR absorbing agent were air-dried. In the emulsion method of encapsulation, a surfactant is necessary to help keep the emulsion stable. While Aerosol® TR-70 (sodium bis(tridecyl) sulfosuccinate) could be used as an emulsifier to prepare polymer particles encapsulating Epolight™ 1117 tetrakis aminium dye, TR-70 only provided limited stabilization effects on the tetrakis aminium dye. […]

| SMILES | Likelihood Score [1] | other results |
| --- | --- | --- |
| CCN1CCN(Cc2ccc(Nc3ncc(F)c(-c4cc(F)c5nc(C)n(C(C)C)c5c4)n3)nc2)CC1 [Abemaciclib] | E* |  |
| CCS(=O)(=O)N1CC(CC#N)(n2cc(-c3ncnc4[nH]ccc34)cn2)C1 [Baricitinib] | E* |  |
| Cn1cnc2c(F)c(Nc3ccc(Br)cc3F)c(C(=O)NOCCO)cc21 [Binimetinib] | E* |  |
| COc1cc(Nc2c(C#N)cnc3cc(OCCCN4CCN(C)CC4)c(OC)cc23)c(Cl)cc1Cl [Bosutinib] | E* |  |
| COc1cc(N2CCC(N3CCN(C)CC3)CC2)ccc1Nc1ncc(Cl)c(Nc2ccccc2P(C)(C)=O)n1 [Brigatinib] | E* |  |
| COc1cc2nccc(Oc3ccc(NC(=O)C4(C(=O)Nc5ccc(F)cc5)CC4)cc3)c2cc1OC [Cabozantinib] | E* |  |
| COc1c(OCCCN2CCOCC2)ccc2c1N=C(NC(=O)c1cnc(N)nc1)N1CCN=C21 [Copanlisib] | E* |  |
| COc1cc(/C=C/C(=O)CC(=O)/C=C/c2ccc(O)c(OC)c2)ccc1O [Curcumin, curcumin] |  | reduction of leaching by the VTMS shell [2]: 70% |
| CC(C)(C)c1nc(-c2cccc(NS(=O)(=O)c3c(F)cccc3F)c2F)c(-c2ccnc(N)n2)s1 [Dabrafenib] | E* |  |
| COc1cc2ncnc(Nc3ccc(F)c(Cl)c3)c2cc1NC(=O)/C=C/CN1CCCCC1 [Dacomitinib] | E* |  |
| C[C@H](Nc1ncnc2[nH]cnc12)c1cc2cccc(Cl)c2c(=O)n1-c1ccccc1 [Duvelisib] | E* |  |
| CC(C)(O)CNc1nc(Nc2ccnc(C(F)(F)F)c2)nc(-c2cccc(C(F)(F)F)n2)n1 [Enasidenib] | E* |  |
| COC(=O)N[C@@H](C)CNc1nccc(-c2cn(C(C)C)nc2-c2cc(Cl)cc(NS(C)(=O)=O)c2F)n1 [Encorafenib] | E* |  |
| COc1cc(Nc2ncc(F)c(Nc3ccc4c(n3)N(COP(=O)(O)O)C(=O)C(C)(C)O4)n2)cc(OC)c1OC [Fostamatinib] | E* |  |
| CCc1nc(C(N)=O)c(Nc2ccc(N3CCC(N4CCN(C)CC4)CC3)c(OC)c2)nc1NC1CCOCC1 [Gilteritinib] | E* |  |
| CN1CC[C@@H](NC(=O)Nc2ccc(C#N)cc2)C[C@@H]1c1nc2ccccc2[nH]1 [Glasdegib] | E* |  |
| N#Cc1ccnc(N2C(=O)CC[C@H]2C(=O)N(c2cncc(F)c2)[C@H](C(=O)NC2CC(F)(F)C2)c2ccccc2Cl)c1 [Ivosidenib] | E* |  |

| SMILES | Likelihood Score [1] | other results |
| --- | --- | --- |
| CC(C)C[C@H](NC(=O)CNC(=O)c1cc(Cl)ccc1Cl)B(O)O [Ixazomib] | E* |  |
| O=C(Nc1cnn2ccc(N3CCC[C@@H]3c3cc(F)ccc3F)nc12)N1CC[C@H](O)C1 [Larotrectinib] | E* |  |
| C[C@H]1Oc2cc(cnc2N)-c2c(nn(C)c2C#N)CN(C)C(=O)c2ccc(F)cc21 [Lorlatinib] | E* |  |
| CO[C@@H]1[C@H](N(C)C(=O)c2ccccc2)C[C@H]2O[C@]1(C)n1c3ccccc3c3c4c(c5c6ccccc6n2c5c31)C(=O)NC4 [Midostaurin] | E* |  |
| CCOc1cc2ncc(C#N)c(Nc3ccc(OCc4ccccn4)c(Cl)c3)c2cc1NC(=O)/C=C/CN(C)C [Neratinib] | E* |  |
| COC(=O)c1ccc2c(c1)NC(=O)/C2=C(\Nc1ccc(N(C)C(=O)CN2CCN(C)CC2)cc1)c1ccccc1 [Nintedanib] | E* |  |
| NC(=O)c1cccc2cn(-c3ccc([C@@H]4CCCNC4)cc3)nc12 [Niraparib] | E* |  |
| CC(=O)c1c(C)c2cnc(Nc3ccc(N4CCNCC4)cn3)nc2n(C2CCCC2)c1=O [Palbociclib] | E* |  |
| Cc1ccc(C(=O)Nc2ccc(CN3CCN(C)CC3)c(C(F)(F)F)c2)cc1C#Cc1cnc2cccnn12 [Ponatinib] | E* |  |
| CNCc1ccc(-c2[nH]c3cc(F)cc4c3c2CCNC4=O)cc1 [Rucaparib] | D* |  |
| N#CC[C@H](C1CCCC1)n1cc(-c2ncnc3[nH]ccc23)cn1 [Ruxolitinib] | E* |  |
| CCCCCCCCCCCCOS(=O)(=O)[O-].[Na+] [Sodium dodecyl sulfate, sodium dodecyl sulfate] |  | % Epolight ™ 1117 Retention [3]: 85-90% |
| Cc1c(C(=O)Nc2ccc(N3C[C@@H](C)O[C@@H](C)C3)nc2)cccc1-c1ccc(OC(F)(F)F)cc1 [Sonidegib] | E* |  |
| CCCCCCCCCCCCCOC(=O)CC(C(=O)OCCCCCCCCCCCCC)S(=O)(=O)O.[Na] (stereo not shown) [TR-70, sodium bis(tridecyl) sulfosuccinate] |  | % Epolight ™ 1117 Retention [3]: 50% |
| Cn1ncnc1[C@H]1c2n[nH]c(=O)c3cc(F)cc(c23)N[C@@H]1c1ccc(F)cc1 [Talazoparib] | E* |  |
| COc1cc2c(Nc3ccc(Br)cc3F)ncnc2cc1OCC1CCN(C)CC1 [Vandetanib] | E* |  |
| CCCS(=O)(=O)Nc1ccc(F)c(C(=O)c2c[nH]c3ncc(-c4ccc(Cl)cc4)cc23)c1F [Vemurafenib] | E* |  |
